Results as given in PubChem BioAssay (NCI).
Where “and” joins values, the source holds several entries; their conditions need not be identical. Equal values may be shown once.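 A five-concentration, 48-hour dose response in 96-well plates underlies each endpoint, interpolated linearly between surrounding concentrations. The concentration for 50% growth inhibition is given as GI50. At the TGI there is no net growth.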

Columns and labels:
Assay in all cases: growth of human tumour cells (NCI), 48 h
UO-31 renal = system: UO-31 renal
A549 NSCLC = system: A549 NSCLC
ACHN renal = system: ACHN renal
OVCAR-8 ovarian = system: OVCAR-8 ovarian
HS 578T breast = system: HS 578T breast
SN12C renal = system: SN12C renal
SK-OV-3 ovarian = system: SK-OV-3 ovarian
SK-MEL-5 melanoma = system: SK-MEL-5 melanoma
SNB-75 CNS = system: SNB-75 CNS
HL-60(TB) leukemia = system: HL-60(TB) leukemia
COLO 205 colon = system: COLO 205 colon
UACC-257 melanoma = system: UACC-257 melanoma
OVCAR-3 ovarian = system: OVCAR-3 ovarian
RPMI-8226 leukemia = system: RPMI-8226 leukemia
HCC-2998 colon = system: HCC-2998 colon
K-562 leukemia = system: K-562 leukemia
CAKI-1 renal = system: CAKI-1 renal
MDA-MB-231 breast = system: MDA-MB-231 breast
U251 CNS = system: U251 CNS
SNB-19 CNS = system: SNB-19 CNS
IGROV1 ovarian = system: IGROV1 ovarian
MALME-3M melanoma = system: MALME-3M melanoma
KM12 colon = system: KM12 colon
T-47D breast = system: T-47D breast
NCI-H522 lung = system: NCI-H522 lung
SF-295 CNS = system: SF-295 CNS
EKVX NSCLC = system: EKVX NSCLC
SF-268 CNS = system: SF-268 CNS
HOP-92 NSCLC = system: HOP-92 NSCLC
SK-MEL-2 melanoma = system: SK-MEL-2 melanoma
NCI/ADR-RES ovarian = system: NCI/ADR-RES ovarian
DU-145 prostate = system: DU-145 prostate
MOLT-4 leukemia = system: MOLT-4 leukemia
SR leukemia = system: SR leukemia
HOP-62 NSCLC = system: HOP-62 NSCLC
CCRF-CEM leukemia = system: CCRF-CEM leukemia
SK-MEL-28 melanoma = system: SK-MEL-28 melanoma
MDA-MB-435 = system: MDA-MB-435
PC-3 prostate = system: PC-3 prostate
OVCAR-5 ovarian = system: OVCAR-5 ovarian
SW-620 colon = system: SW-620 colon
BT-549 breast = system: BT-549 breast
HCT-15 colon = system: HCT-15 colon
M14 melanoma = system: M14 melanoma
786-0 renal = system: 786-0 renal
HT29 colon = system: HT29 colon
UACC-62 melanoma = system: UACC-62 melanoma
NCI-H23 lung = system: NCI-H23 lung
TK-10 renal = system: TK-10 renal
SF-539 CNS = system: SF-539 CNS
MCF7 breast = system: MCF7 breast
RXF 393 renal = system: RXF 393 renal
HCT-116 colon = system: HCT-116 colon
A498 renal = system: A498 renal
OVCAR-4 ovarian = system: OVCAR-4 ovarian
NCI-H226 lung = system: NCI-H226 lung
NCI-H460 lung = system: NCI-H460 lung
LOX IMVI melanoma = system: LOX IMVI melanoma

With `CS(=O)(=O)N1CCc2c(-c3cnc(N)nc3)nc(N3CCOCC3)nc21` the GI50 (UO-31 renal) was 0.18 µM and 0.136 µM, the TGI (UO-31 renal) was 3.14 µM and 3.03 µM and the GI50 (A549 NSCLC) was 0.644 µM and 0.413 µM. The TGI (A549 NSCLC) was > 10 µM and 5.45 µM, the GI50 (ACHN renal) was 0.735 µM and 0.677 µM and the TGI (ACHN renal) was greater than 100 µM. The GI50 (OVCAR-8 ovarian) was 1.65 µM and 0.984 µM, the TGI (OVCAR-8 ovarian) was > 10 µM and 14 µM and the GI50 (HS 578T breast) was 0.324 µM and 0.222 µM. For the same compound, the TGI (HS 578T breast) was 3.3 µM and 1.86 µM, the GI50 (SN12C renal) was 0.648 µM and 0.667 µM and the TGI (SN12C renal) was greater than 100 µM. The GI50 (SK-OV-3 ovarian) was 0.128 µM and 0.166 µM, the TGI (SK-OV-3 ovarian) was 0.692 µM and 1.37 µM and the GI50 (SK-MEL-5 melanoma) was 1.78 µM and 1.36 µM. For the same compound, the TGI (SK-MEL-5 melanoma) was greater than 30.7 µM, the GI50 (SNB-75 CNS) was 0.146 µM and 0.135 µM and the TGI (SNB-75 CNS) was 1.3 µM and 0.929 µM. The GI50 (HL-60(TB) leukemia) was 0.415 µM, the TGI (HL-60(TB) leukemia) was greater than 100 µM and the GI50 (COLO 205 colon) was 0.444 µM and 0.516 µM. The TGI (COLO 205 colon) was > 10 µM and 13 µM, the GI50 (UACC-257 melanoma) was 0.809 µM and 0.446 µM and the TGI (UACC-257 melanoma) was 6.85 µM and 3.8 µM. For the same compound, the GI50 (OVCAR-3 ovarian) was 0.59 µM and 0.641 µM, the TGI (OVCAR-3 ovarian) was greater than 21.4 µM and the GI50 (RPMI-8226 leukemia) was 1.52 µM and 2.5 µM. The TGI (RPMI-8226 leukemia) was greater than 100 µM, the GI50 (HCC-2998 colon) was 0.923 µM and 0.794 µM and the TGI (HCC-2998 colon) was greater than 73.5 µM. The GI50 (K-562 leukemia) was > 6.98 µM and 5.3 µM, the TGI (K-562 leukemia) was greater than 100 µM and the GI50 (CAKI-1 renal) was 0.484 µM and 0.651 µM. The TGI (CAKI-1 renal) was > 10 µM and 7.76 µM, the GI50 (MDA-MB-231 breast) was 1.29 µM and 1.26 µM and the TGI (MDA-MB-231 breast) was > 10 µM and 23.4 µM. For the same compound, the GI50 (U251 CNS) was 1.7 µM and 1.27 µM, the TGI (U251 CNS) was > 10 µM and 23 µM and the GI50 (SNB-19 CNS) was 2.21 µM and 1.64 µM. The TGI (SNB-19 CNS) was greater than 59.5 µM, the GI50 (IGROV1 ovarian) was 0.0868 µM and 0.0664 µM and the TGI (IGROV1 ovarian) was 0.443 µM and 0.485 µM. For the same compound, the GI50 (MALME-3M melanoma) was 0.619 µM and 0.488 µM, the TGI (MALME-3M melanoma) was > 6.87 µM and 4.87 µM and the GI50 (KM12 colon) was 2.1 µM and 2.25 µM. For the same compound, the TGI (KM12 colon) was greater than 100 µM, the GI50 (T-47D breast) was 0.041 µM and 0.0468 µM and the TGI (T-47D breast) was 0.399 µM and 0.463 µM. For the same compound, the GI50 (NCI-H522 lung) was 0.642 µM and 2.1 µM, the TGI (NCI-H522 lung) was greater than 48.7 µM and the GI50 (SF-295 CNS) was 0.556 µM and 0.354 µM. The TGI (SF-295 CNS) was 3.91 µM and 3.29 µM, the GI50 (EKVX NSCLC) was 0.988 µM and 0.44 µM and the TGI (EKVX NSCLC) was > 10 µM and 5.74 µM. The GI50 (SF-268 CNS) was 0.821 µM and 1.05 µM, the TGI (SF-268 CNS) was greater than 51.6 µM and the GI50 (HOP-92 NSCLC) was 0.102 µM and 0.112 µM. For the same compound, the TGI (HOP-92 NSCLC) was 0.641 µM and 1.35 µM, the GI50 (SK-MEL-2 melanoma) was 1.28 µM and 1.77 µM and the TGI (SK-MEL-2 melanoma) was 8.66 µM and 14 µM. For the same compound, the GI50 (NCI/ADR-RES ovarian) was 2.16 µM and 1.63 µM, the TGI (NCI/ADR-RES ovarian) was greater than 100 µM and the GI50 (DU-145 prostate) was 0.632 µM and 0.503 µM. For the same compound, the TGI (DU-145 prostate) was greater than 45.9 µM, the GI50 (MOLT-4 leukemia) was 0.92 µM and 0.807 µM and the TGI (MOLT-4 leukemia) was greater than 100 µM. The GI50 (SR leukemia) was 2.08 µM and 1.96 µM, the TGI (SR leukemia) was greater than 100 µM and the GI50 (HOP-62 NSCLC) was 1.26 µM and 0.795 µM. The TGI (HOP-62 NSCLC) was > 10 µM and 11.8 µM, the GI50 (CCRF-CEM leukemia) was 0.658 µM and 1.23 µM and the TGI (CCRF-CEM leukemia) was greater than 100 µM. For the same compound, the GI50 (SK-MEL-28 melanoma) was 0.646 µM and 0.695 µM, the TGI (SK-MEL-28 melanoma) was 8.18 µM and 13.1 µM and the GI50 (MDA-MB-435) was 0.94 µM and 0.78 µM. For the same compound, the TGI (MDA-MB-435) was > 10 µM and 12.6 µM, the GI50 (PC-3 prostate) was 0.279 µM and 0.258 µM and the TGI (PC-3 prostate) was > 5.95 µM and 11 µM. The GI50 (OVCAR-5 ovarian) was 0.685 µM and 0.461 µM, the TGI (OVCAR-5 ovarian) was greater than 62.6 µM and the GI50 (SW-620 colon) was 1.54 µM and 1.29 µM. For the same compound, the TGI (SW-620 colon) was greater than 100 µM, the GI50 (BT-549 breast) was 0.51 µM and 0.479 µM and the TGI (BT-549 breast) was 6.08 µM and 6.39 µM. The GI50 (HCT-15 colon) was 0.397 µM and 0.419 µM, the TGI (HCT-15 colon) was greater than 100 µM and the GI50 (M14 melanoma) was 1.43 µM and 0.625 µM. The TGI (M14 melanoma) was greater than 41 µM, the GI50 (786-0 renal) was 0.696 µM and 0.562 µM and the TGI (786-0 renal) was > 8.81 µM and 16.5 µM. For the same compound, the GI50 (HT29 colon) was 0.26 µM and 0.307 µM, the TGI (HT29 colon) was greater than 77.5 µM and the GI50 (UACC-62 melanoma) was 0.28 µM and 0.393 µM. The TGI (UACC-62 melanoma) was 2.24 µM and 2.9 µM, the GI50 (NCI-H23 lung) was 1.94 µM and 1.37 µM and the TGI (NCI-H23 lung) was greater than 100 µM. For the same compound, the GI50 (TK-10 renal) was 0.197 µM and 0.221 µM, the TGI (TK-10 renal) was 3.25 µM and 4.09 µM and the GI50 (SF-539 CNS) was 0.835 µM and 0.878 µM. For the same compound, the TGI (SF-539 CNS) was 4.13 µM and 3.89 µM, the GI50 (MCF7 breast) was 0.0961 µM and 0.05 µM and the TGI (MCF7 breast) was greater than 76.1 µM. For the same compound, the GI50 (RXF 393 renal) was 0.605 µM and 0.421 µM, the TGI (RXF 393 renal) was 4.04 µM and 3.27 µM and the GI50 (HCT-116 colon) was 0.571 µM and 0.553 µM. The TGI (HCT-116 colon) was greater than 100 µM, the GI50 (A498 renal) was 0.203 µM and 0.101 µM and the TGI (A498 renal) was 0.836 µM and 0.447 µM. The GI50 (OVCAR-4 ovarian) was 1.21 µM and 0.945 µM, the TGI (OVCAR-4 ovarian) was greater than 25.7 µM and the GI50 (NCI-H226 lung) was 0.52 µM and 0.343 µM. The TGI (NCI-H226 lung) was 9.45 µM and 12.5 µM, the GI50 (NCI-H460 lung) was 0.333 µM and 0.286 µM and the TGI (NCI-H460 lung) was greater than 100 µM. For the same compound, the GI50 (LOX IMVI melanoma) was 0.579 µM and 0.406 µM and the TGI (LOX IMVI melanoma) was greater than 94.2 µM.
